Measured values as given in BindingDB's records for doi:10.1016/j.ejmech.2020.113033 (Leiden University, 2021).

Assay: Displacement of [3H]dofetilide from human ERG stably expressed in HEK293 cell membranes assessed as unlabelled dofetilide IC50 at 1 uM measured after 60 mins by microbeta liquid scintillation counting method (Rvb = 9.1 to 11.7 nM)

IC50 [nM] | Compound
20 | O=C(COc1ccc(C(=O)c2cc(Cl)ccc2Br)cc1)Nc1cncc(C(=O)NCC2CC2)c1

Assay: Displacement of [3H]dofetilide from human ERG stably expressed in HEK293 cell membranes assessed as unlabelled dofetilide IC50 at 10 uM measured after 60 mins by microbeta liquid scintillation counting method (Rvb = 9.1 to 11.7 nM)

Compound | IC50 [nM]
CNC(=O)c1cccc(NC(=O)COc2ccc(C(=O)c3cc(Cl)ccc3Br)cc2)c1 | 22
N#Cc1cc(NC(=O)COc2ccc(C(=O)c3cc(Cl)ccc3Br)cc2)ccc1F | 70
O=C(COc1ccc(C(=O)c2cc(Cl)ccc2Br)cc1)Nc1cccc(C(=O)NCC2CC2)c1 | 26

Results, then the compound that gave them:

IC50 [nM] | Compound
36 | O=C(COc1ccc(C(=O)c2ccccc2Br)cc1)Nc1cccnc1
18 | O=C(COc1ccc(C(=O)c2cc(Cl)ccc2Br)cc1)Nc1ccnc(F)c1

Assay: Displacement of [3H]dofetilide from human ERG stably expressed in HEK293 cell membranes assessed as unlabelled dofetilide IC50 at 0.5 uM measured after 60 mins by microbeta liquid scintillation counting method (Rvb = 9.1 to 11.7 nM)

IC50 [nM] | Compound
18 | O=C(COc1ccc(C(=O)c2cc(Cl)ccc2Br)cc1)Nc1ccnc(C(=O)NCC2CC2)c1

Assay: Displacement of [3H]dofetilide from human ERG stably expressed in HEK293 cell membranes assessed as unlabelled dofetilide IC50 at 3 uM measured after 60 mins by microbeta liquid scintillation counting method (Rvb = 9.1 to 11.7 nM)

Compound | IC50 [nM]
Cc1cc(NC(=O)COc2ccc(C(=O)c3cc(Cl)ccc3Br)cc2)ccn1 | 60
O=C(COc1ccc(C(=O)c2cc(Cl)ccc2Br)cc1)Nc1ccc(Cl)c(C(=O)NCC2CC2)c1 | 18

Next, values leading:

IC50 [nM] | Compound
35 | O=C(COc1ccc(C(=O)c2cc(Cl)ccc2Br)cc1)Nc1cccnc1
13 | N#Cc1cccc(NC(=O)COc2ccc(C(=O)c3cc(Cl)ccc3Br)cc2)c1F
11 | O=C(COc1ccc(C(=O)c2cc(Cl)ccc2Br)cc1)Nc1cccc(C(=O)NC2CC2)c1
